In article PMC4669708 (Cell Death & Disease, 2015):

What was measured:
Experiment in all cases: c-ponatinib pulldown LC-MS/MS
Assay type in all cases: binding
CDK8 = CDK8 (Homo sapiens, UniProt P49336)
Procedure, shortened: (§1)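 Spectral counts and search-engine scores from LC-MS/MS of tryptic eluates gave drug-protein specificity P-values. Eluates came from duplicate pulldowns of 10 mg lysate on 25 nmol immobilized c-ponatinib. Competition was the ratio of median counts with versus without free compound.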

MAP4K2 = target: T1, MAP4K2 (Homo sapiens, UniProt Q12851)
T1 sequence (Q12851 1-820): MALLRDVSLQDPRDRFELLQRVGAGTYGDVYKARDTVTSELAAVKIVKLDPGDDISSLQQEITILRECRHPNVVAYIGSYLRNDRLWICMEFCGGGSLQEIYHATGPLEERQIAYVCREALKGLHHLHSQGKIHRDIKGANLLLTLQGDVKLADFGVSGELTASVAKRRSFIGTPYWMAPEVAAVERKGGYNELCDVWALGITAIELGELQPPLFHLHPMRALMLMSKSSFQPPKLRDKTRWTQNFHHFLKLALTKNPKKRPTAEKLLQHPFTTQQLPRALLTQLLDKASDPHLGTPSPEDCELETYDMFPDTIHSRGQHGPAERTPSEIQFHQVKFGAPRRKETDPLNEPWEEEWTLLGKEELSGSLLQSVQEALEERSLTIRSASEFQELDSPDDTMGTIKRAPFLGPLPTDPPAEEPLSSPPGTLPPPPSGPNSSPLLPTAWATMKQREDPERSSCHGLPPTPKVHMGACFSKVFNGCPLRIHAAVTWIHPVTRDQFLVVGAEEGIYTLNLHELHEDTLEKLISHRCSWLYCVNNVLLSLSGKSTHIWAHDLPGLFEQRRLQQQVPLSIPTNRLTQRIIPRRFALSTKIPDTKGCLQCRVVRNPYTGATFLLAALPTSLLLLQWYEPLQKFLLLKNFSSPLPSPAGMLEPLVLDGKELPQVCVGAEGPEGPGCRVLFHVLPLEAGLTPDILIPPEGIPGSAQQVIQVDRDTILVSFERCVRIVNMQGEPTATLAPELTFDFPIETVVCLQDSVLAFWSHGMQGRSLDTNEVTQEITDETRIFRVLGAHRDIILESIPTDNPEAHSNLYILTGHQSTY
Procedure, shortened: as §1

MAP4K4 = MAP4K4 (Homo sapiens, UniProt O95819)
MAP4K4, sequence (O95819 whole entry): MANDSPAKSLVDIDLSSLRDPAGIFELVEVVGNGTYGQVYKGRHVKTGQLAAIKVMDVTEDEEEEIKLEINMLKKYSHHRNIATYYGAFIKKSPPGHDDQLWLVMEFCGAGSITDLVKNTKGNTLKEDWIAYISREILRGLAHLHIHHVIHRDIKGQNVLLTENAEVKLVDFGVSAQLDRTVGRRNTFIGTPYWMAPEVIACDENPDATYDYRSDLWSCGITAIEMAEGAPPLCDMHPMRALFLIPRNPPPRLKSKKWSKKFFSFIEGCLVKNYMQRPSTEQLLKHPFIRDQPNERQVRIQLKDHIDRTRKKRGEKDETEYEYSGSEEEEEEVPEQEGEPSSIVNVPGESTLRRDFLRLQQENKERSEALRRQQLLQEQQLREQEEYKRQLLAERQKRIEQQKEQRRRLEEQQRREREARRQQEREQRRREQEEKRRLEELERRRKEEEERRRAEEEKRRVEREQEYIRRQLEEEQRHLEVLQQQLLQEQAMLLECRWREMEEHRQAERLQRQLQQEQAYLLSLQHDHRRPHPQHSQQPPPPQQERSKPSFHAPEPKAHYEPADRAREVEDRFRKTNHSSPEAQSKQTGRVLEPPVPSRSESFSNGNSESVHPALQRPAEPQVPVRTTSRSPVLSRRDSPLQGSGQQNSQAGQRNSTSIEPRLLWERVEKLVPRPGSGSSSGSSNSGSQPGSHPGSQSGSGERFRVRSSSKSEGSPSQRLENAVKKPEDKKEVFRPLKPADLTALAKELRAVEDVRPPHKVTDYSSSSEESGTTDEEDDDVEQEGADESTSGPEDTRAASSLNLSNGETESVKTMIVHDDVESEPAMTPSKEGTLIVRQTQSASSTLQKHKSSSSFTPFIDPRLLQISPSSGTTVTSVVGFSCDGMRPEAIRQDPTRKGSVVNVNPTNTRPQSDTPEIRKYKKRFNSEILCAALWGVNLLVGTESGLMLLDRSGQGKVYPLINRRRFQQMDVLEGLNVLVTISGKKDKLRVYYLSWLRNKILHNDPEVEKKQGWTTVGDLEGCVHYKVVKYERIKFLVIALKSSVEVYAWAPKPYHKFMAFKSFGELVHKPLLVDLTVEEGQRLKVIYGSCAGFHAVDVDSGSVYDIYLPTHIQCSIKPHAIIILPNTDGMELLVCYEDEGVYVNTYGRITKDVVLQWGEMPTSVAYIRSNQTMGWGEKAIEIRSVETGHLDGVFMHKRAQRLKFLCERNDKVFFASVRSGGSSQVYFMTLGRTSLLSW
Procedure, shortened: as §1

RIPK3 = RIPK3 (Homo sapiens, UniProt Q9Y572)
RIPK3, sequence (Q9Y572 whole entry): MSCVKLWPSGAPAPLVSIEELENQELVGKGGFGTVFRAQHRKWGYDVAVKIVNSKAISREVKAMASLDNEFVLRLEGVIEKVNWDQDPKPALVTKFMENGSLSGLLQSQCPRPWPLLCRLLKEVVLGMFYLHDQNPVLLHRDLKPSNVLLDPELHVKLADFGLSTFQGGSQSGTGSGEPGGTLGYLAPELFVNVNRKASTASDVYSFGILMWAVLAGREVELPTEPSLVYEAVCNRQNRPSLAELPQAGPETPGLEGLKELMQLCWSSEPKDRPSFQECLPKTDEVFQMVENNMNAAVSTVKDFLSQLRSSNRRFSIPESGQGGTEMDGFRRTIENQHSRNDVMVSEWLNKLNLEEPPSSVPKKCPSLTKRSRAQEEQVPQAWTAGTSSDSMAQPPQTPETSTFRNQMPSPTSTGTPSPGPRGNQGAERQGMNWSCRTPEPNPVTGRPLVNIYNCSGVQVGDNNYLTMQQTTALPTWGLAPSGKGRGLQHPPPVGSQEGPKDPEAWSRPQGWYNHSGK
Procedure, shortened: as §1

CDK8, sequence (P49336 whole entry): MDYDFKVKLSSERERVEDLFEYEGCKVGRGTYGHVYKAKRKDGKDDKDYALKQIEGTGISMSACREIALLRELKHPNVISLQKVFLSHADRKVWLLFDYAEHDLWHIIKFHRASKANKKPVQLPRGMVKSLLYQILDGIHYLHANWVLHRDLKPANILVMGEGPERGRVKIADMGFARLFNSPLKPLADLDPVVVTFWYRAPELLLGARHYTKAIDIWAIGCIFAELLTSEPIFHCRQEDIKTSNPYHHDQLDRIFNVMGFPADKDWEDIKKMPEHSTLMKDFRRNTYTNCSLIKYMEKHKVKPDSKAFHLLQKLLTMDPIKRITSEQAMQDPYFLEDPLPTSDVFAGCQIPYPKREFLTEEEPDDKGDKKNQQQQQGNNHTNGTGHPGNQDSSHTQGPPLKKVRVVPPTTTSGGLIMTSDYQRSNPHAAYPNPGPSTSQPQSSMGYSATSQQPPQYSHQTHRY
CDK8, sequence (P24863 whole entry partner): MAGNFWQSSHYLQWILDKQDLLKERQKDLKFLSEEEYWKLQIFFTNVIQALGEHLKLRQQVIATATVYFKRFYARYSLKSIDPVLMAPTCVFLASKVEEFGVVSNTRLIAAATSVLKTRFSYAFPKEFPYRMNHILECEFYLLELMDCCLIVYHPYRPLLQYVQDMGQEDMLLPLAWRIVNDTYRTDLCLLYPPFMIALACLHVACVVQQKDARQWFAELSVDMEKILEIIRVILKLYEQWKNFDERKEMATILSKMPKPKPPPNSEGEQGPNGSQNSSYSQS

What does the source list for Cc1ccc(C(=O)Nc2ccc(CN3CCN(CCCN)CC3)c(C(F)(F)F)c2)cc1C#Cc1cnc2cccnn12 [c-ponatinib]?
Av. SC comp. (CDK8; + free ponatinib): 0; Total SC comp. (CDK8; + free ponatinib): 0; Av. SC (CDK8; no competitor): 3.75; Total SC (CDK8; no competitor): 15; Av. SC comp. (MAP4K2; + free ponatinib): 0; Total SC comp. (MAP4K2; + free ponatinib): 0; Av. SC (MAP4K2; no competitor): 2.5; Total SC (MAP4K2; no competitor): 10; Av. SC comp. (MAP4K4; + free ponatinib): 10.75; Total SC comp. (MAP4K4; + free ponatinib): 43; Av. SC (MAP4K4; no competitor): 54.5; Total SC (MAP4K4; no competitor): 218; Av. SC comp. (RIPK3; + free ponatinib): 0; Total SC comp. (RIPK3; + free ponatinib): 0; Av. SC (RIPK3; no competitor): 17; Total SC (RIPK3; no competitor): 68
